From ChEMBL document CHEMBL1154540, “Synthesis of 10-substituted triazolyl artemisinins possessing anticancer activity via Huisgen 1,3-dipolar cylcoaddition” (2009)

Tests used:
DLD-1 = test: Cytotoxicity against human DLD1 cells after 72 hrs by MTT colorimetric assay; format: functional; details: DLD-1, 72 h
[1] = Cytotoxicity against human U87 cells after 72 hrs by MTT colorimetric assay; format: functional, U-87MG ATCC; details: U-87 MG
HeLa = test: Cytotoxicity against human HeLa cells after 72 hrs by MTT colorimetric assay; format: functional
SiHa = test: Cytotoxicity against human SiHa cells after 72 hrs by MTT colorimetric assay; format: functional
[2] = Cytotoxicity against human A172 cells after 72 hrs by MTT colorimetric assay; format: functional; details: A 172, 72 h
B16 = test: Cytotoxicity against mouse B16 cells after 72 hrs by MTT colorimetric assay; format: functional; details: B16, 72 h

Compound	GI50 (DLD-1) [nM]	GI50 [1] [nM]	GI50 (HeLa) [nM]	GI50 (SiHa) [nM]	GI50 [2] [nM]	GI50 (B16) [nM]
C[C@H]1[C@H](n2cc(-c3cccc(Cl)c3)nn2)O[C@@H]2O[C@@]3(C)CC[C@H]4[C@H](C)CC[C@@H]1[C@@]24OO3	14200	160	80	150	370	60
C[C@@H]1[C@@H](N=[N+]=[N-])O[C@@H]2O[C@@]3(C)CC[C@H]4[C@H](C)CC[C@@H]1[C@@]24OO3	> 50000	11200	> 50000	9070	16800	> 50000
C[C@H]1[C@@H](N=[N+]=[N-])O[C@@H]2O[C@@]3(C)CC[C@H]4[C@H](C)CC[C@@H]1[C@@]24OO3	9440	1970	490	1130	2310	> 50000
C[C@@H]1[C@@H](n2cc(-c3ccccc3)nn2)O[C@@H]2O[C@@]3(C)CC[C@H]4[C@H](C)CC[C@@H]1[C@@]24OO3	29700	2860	720	3220	2500	8780
C[C@H]1[C@@H](n2cc(-c3ccccc3)nn2)O[C@@H]2O[C@@]3(C)CC[C@H]4[C@H](C)CC[C@@H]1[C@@]24OO3	520	230	130	260	220	300
CC(=O)O[C@H]1C(=O)[C@@]2(C)[C@H]([C@H](OC(=O)c3ccccc3)[C@]3(O)C[C@H](OC(=O)[C@H](O)[C@@H](NC(=O)c4ccccc4)c4ccccc4)C(C)=C1C3(C)C)[C@]1(OC(C)=O)CO[C@@H]1C[C@@H]2O [PACLITAXEL]	10	20	20	30	10	10
C=C(C)c1cn([C@@H]2O[C@@H]3O[C@@]4(C)CC[C@H]5[C@H](C)CC[C@@H]([C@H]2C)[C@@]35OO4)nn1	23000	830	310	1130	1310	1320
C[C@H]1[C@H](n2cc(-c3cc(F)cc(F)c3)nn2)O[C@@H]2O[C@@]3(C)CC[C@H]4[C@H](C)CC[C@@H]1[C@@]24OO3	22900	140	140	200	290	160
C[C@H]1[C@H](N=[N+]=[N-])O[C@@H]2O[C@@]3(C)CC[C@H]4[C@H](C)CC[C@@H]1[C@@]24OO3	> 50000	1060	1930	1470	890	1560
COc1ccc(-c2cn([C@@H]3O[C@@H]4O[C@@]5(C)CC[C@H]6[C@H](C)CC[C@@H]([C@H]3C)[C@@]46OO5)nn2)cc1	6680	1220	560	350	1210	900
C[C@H]1[C@H](n2cc(-c3ccc(F)cc3)nn2)O[C@@H]2O[C@@]3(C)CC[C@H]4[C@H](C)CC[C@@H]1[C@@]24OO3	140	340	600	350	420	430
C[C@H]1[C@H](n2cc(-c3ccccc3)nn2)O[C@@H]2O[C@@]3(C)CC[C@H]4[C@H](C)CC[C@@H]1[C@@]24OO3	12100	430	210	540	450	1250
CCCCCc1ccc(-c2cn([C@@H]3O[C@@H]4O[C@@]5(C)CC[C@H]6[C@H](C)CC[C@@H]([C@H]3C)[C@@]46OO5)nn2)cc1	30	80	30	90	100	80
Cc1ccc(-c2cn([C@@H]3O[C@@H]4O[C@@]5(C)CC[C@H]6[C@H](C)CC[C@@H]([C@H]3C)[C@@]46OO5)nn2)cc1	80	110	50	150	330	240
